Tested on: patients with severe nodulocystic acne
Experiment: Multicenter double-blind placebo-controlled study of oral tazarotene (Example 10)
Format: in vivo, human
Settings: for patients withdrawing due to lack of efficacy: placebo 17%; for reduction in mean facial papule or pastule count / reduction in mean facial non-inflammatory lesion count / reduction in mean total facial nodulocystic lesion count: end of treatment; for reduction in mean facial papule or pastule count: placebo 31%; for reduction in mean facial non-inflammatory lesion count: placebo 45%; for reduction in mean total facial nodulocystic lesion count: placebo 55%
From the text: A multicenter, double-blind, randomized, placebo-controlled parallel-group study is undertaken to determine the efficacy of orally administered tazarotene in treating severe nodulocystic acne.
In addition, washout periods for other medications for this study are: 1 week for vitamin A supplements >5000 IU; 2 weeks for topical anti-acne medications (e.g., retinoids, azelaic acid, benzoyl peroxide); 2 weeks for topical or systemic antibiotic therapy that may alter the course of acne; and 6 months for systemic retinoids.
Patients are randomized to receive placebo or oral tazarotene (0.75, 1.5, 3, or 6 mg), in a 1:1:1:1:1 ratio once daily for 24 weeks. After this, the patients are followed without treatment for an additional 12 weeks. Patients discontinuing from the treatment period due to adverse effects or lack of efficacy are eligible for entry into the post-treatment phase.
In the study, overall acne severity is rated as: none (no inflammatory acne lesions); mild (few to several papules or pustules, no nodulocystic lesions); moderate (several to many papules or pustules, few to several nodulocystic lesions); and severe (numerous or extensive papules or pustules, many, for example, at least about 5 or at least about 10, nodulocystic lesions).
Treatment success is defined as at least moderate (about 50%) improvement on the following 7-point global response scale: • 0=completely cleared • 1=almost cleared (about 90% improvement) • 2=marked response (about 75% improvement) • 3=moderate response (about 50% improvement) • 4=slight response (about 25% improvement) • 5=condition unchanged • 6=condition worsened
In this study, facial nodulocystic lesion count includes lesions greater than 5 mm in size. Facial papular/pustular lesion count includes lesions less than or equal to 5 mm in size. Facial non-inflammatory lesion count includes open and closed comedones.
Sebum output is assessed every 4 weeks at selected centers using the Sebutape® patches, sold by Cuderm Corporation. Urinalysis, chemistry, and hematology values are monitored. Bone formation and resorption assessments (serum bone alkaline phosphatase and serum amino terminal telopeptides, respectively) at selected centers are monitored.
Bone mineral density of spine and proximal femur at selected centers is monitored. Ligament calcification or osteophyte formation (lateral X-ray of the cervical and thoracic spine, and ankle calcaneous) is monitored. Epiphyseal growth plate closure (internal oblique X-ray of the ankle in patients less than or equal to 21 years old) is monitored.

[1] = 0.75 to 6 mg once daily for 24 weeks

CCOC(=O)c1ccc(C#Cc2ccc3c(c2)C(C)(C)CCS3)nc1 [tazarotene]
patients withdrawing due to adverse events in the treatment period (0.75 mg group (2/35)): 6% | patients withdrawing due to lack of efficacy (0.75 mg group (7/35)): 20% | patients with either no acne or mild acne (0.75 mg group, end of the treatment phase, placebo 19%): 34% | reduction in mean facial papule or pastule count (0.75 mg group): 37% | reduction in mean facial non-inflammatory lesion count (0.75 mg group): 46% | reduction in mean total facial nodulocystic lesion count (0.75 mg group): 66% | mean total facial nodulocystic lesion count at the end of the treatment period (0.75 mg group, from 12.2 at baseline): 4.2 | mean facial papule or pastule count at the end of the treatment period (0.75 mg group, from 32.3 at baseline): 20.3 | mean facial non-inflammatory lesion count at the end of the treatment period (0.75 mg group, from 56.3 at baseline): 30.3 | patients withdrawing due to adverse events in the treatment period (1.5 mg group (0/37)): 0% | patients withdrawing due to lack of efficacy (1.5 mg group (2/37)): 5% | reduction in mean facial papule or pastule count (1.5 mg group): 54% | reduction in mean facial non-inflammatory lesion count (1.5 mg group): 70% | reduction in mean total facial nodulocystic lesion count (1.5 mg group): 73% | mean total facial nodulocystic lesion count at the end of the treatment period (1.5 mg group, from 11.8 at baseline): 3.2 | mean facial papule or pastule count at the end of the treatment period (1.5 mg group, from 29.1 at baseline): 13.3 | mean facial non-inflammatory lesion count at the end of the treatment period (1.5 mg group, from 59.2 at baseline): 17.8 | incidence of treatment success (≧50% global improvement) vs placebo (3 mg and 6 mg, week 24 and throughout the post-treatment phase (p≦0.05)): significantly higher incidence of treatment success | patients withdrawing due to lack of efficacy (3 mg group (0/37)): 0% | patients withdrawing due to adverse events in the treatment period (3 mg group (2/37)): 5% | patients with either no acne or mild acne (3 mg group, end of the post-treatment phase): 43% | reduction in mean facial papule or pastule count (3 mg group): 61% | reduction in mean facial non-inflammatory lesion count (3 mg group): 62% | reduction in mean total facial nodulocystic lesion count (3 mg group): 79% | mean total facial nodulocystic lesion count at the end of the treatment period (3 mg group, from 10.8 at baseline): 2.3 | mean facial papule or pastule count at the end of the treatment period (3 mg group, from 25.4 at baseline): 10.0 | mean facial non-inflammatory lesion count at the end of the treatment period (3 mg group, from 56.1 at baseline): 21.3 | median time to initial complete clearing of facial nodulocystic lesions (3 mg group, placebo 24 weeks (p=0.017)): 16 weeks | patients withdrawing due to adverse events in the treatment period (6 mg group (1/36)): 3% | patients withdrawing due to lack of efficacy (6 mg group (2/36)): 6% | patients with either no acne or mild acne (6 mg group, end of the post-treatment phase): 53% | reduction in mean facial papule or pastule count (6 mg group): 55% | reduction in mean facial non-inflammatory lesion count (6 mg group): 72% | reduction in mean total facial nodulocystic lesion count (6 mg group): 86% | mean total facial nodulocystic lesion count at the end of the treatment period (6 mg group, from 11.6 at baseline): 1.6 | mean facial papule or pastule count at the end of the treatment period (6 mg group, from 24.6 at baseline): 11.1 | mean facial non-inflammatory lesion count at the end of the treatment period (6 mg group, from 47.7 at baseline): 13.5 | median time to initial complete clearing of facial nodulocystic lesions (6 mg group, placebo 24 weeks (p=0.081)): 16 weeks | overall acne severity (6 mg, from week 16 until the end of the post-treatment phase (p≦0.01)): reduces the overall acne severity significantly more than placebo | bone formation and resorption (serum bone alkaline phosphatase, serum amino terminal telopeptides) [1]: do not appear to be altered | changes in urinalysis, chemistry, or hematology measures (including liver function tests, triglycerides, total cholesterol, HDL cholesterol) [1]: None of the treatment groups show any consistent clinically significant changes | ligament calcification, osteophyte formation, or changes in bone density [1]: None of the treatment groups show any clinically significant ligament calcification, osteophyte formation, or changes in bone density | percentage of patients with at least a 90% reduction in facial nodulocystic lesion count vs placebo (1.5, 3, and 6 mg groups, week 24): significantly greater | sebum secretion (Sebutape method) (oral tazarotene 0.75 to 6 mg vs placebo): does not substantially reduce sebum secretion relative to placebo | patients with either no acne or mild acne (three highest dose groups, end of the treatment phase, placebo 19%): More than 45% | patients achieving treatment success (three highest doses, by week 12): more than 70% | patients achieving treatment success (two highest doses, by week 24): more than 86%
